Measurements published in patent US20090311237A1, “Combination therapy using a soluble hyaluronidase and a bisphosphonate” (priority 2008, published 2009).
Values joined by “and” are separate entries in the source; they are usually repeats but may differ in a detail not shown here. Equal entries are not always repeated. Where two headings read alike, the source gives them in different places.

Assay: Phase 1 Stage 1 clinical pharmacokinetics of SC ZA co-administered with rHuPH20
Type: in vivo, human
Set-up: key to Mean Conc. / Median Conc.: BLQ = blow limit for quantitation
Conditions: serum, serum; for MAT: subcutaneous, 100 mL, 24000 Units rHuPH20, read-out: MAT (mean absorption time = SC MRT − IV MRT); for half-life: read-out: T½ λz (converted)
Method: A pharmacokinetic study of zoledronic acid (ZA) co-administered with rHuPH20 in human subjects was conducted. The primary objective of the study was to determine the bioavailability of zoledronic acid dosed via subcutaneous (SC) co-administration with human recombinant hyaluronidase PH20 (rHuPH20). […] The patients were administered the prescribed dosage formulations as follows: Cohorts 1-5 were administered a single subcutaneous infusion in a dosage volume of 100 ml at a rate of 3 mL/min. […] The dosing solution is administered via needle or catheter into the SC space of the left anterior thigh (midway between the anterior iliac crest and the cephalad border of the patella). For cohorts 1-5, the dosing solutions were administered by a controlled rate infusion pump at approximately 3 mL/minute. […] The dosing solutions were administered by syringe push bolus injection. […] Serum concentration of ZA was determined using a qualified LC-MS-MS assay after derivatization with diazomethane (Zhu, L S et al. (2006) Rapid Commun. […] The assay range was from 2.0 to 400 ng/mL with a lower limit of quantitation (LLOQ) at 2.0 ng/mL. […] Non-compartmental analysis was used for derivation of primary and secondary pharmacokinetic (PK) parameters. […] Summary statistics (mean, standard deviation, and median) were calculated using JMP or Microsoft Excel.

[1] = ZA 0.25 mg SC infusion + 24000 Units rHuPH20, 12 h post infusion, n=3
[2] = ZA 0.25 mg SC infusion + 24000 Units rHuPH20, 24 h post infusion, n=3
[3] = ZA 0.25 mg SC infusion + 24000 Units rHuPH20, 48 h post infusion, n=3

Compound `O=P(O)(O)C(O)(Cn1ccnc1)P(=O)(O)O` [ZA, 1-hydroxy-2-(1H-imidazol-1-yl)ethylidene-1,1-bisphosphonic acid] has a concentration at 6 h (human, sc, ZA 5 mg SC infusion + 24000 Units rHuPH20, 6 h post infusion, n=3, read-out: Median Conc.) of 22.3 ng/mL, a concentration at 8 h (human, sc, ZA 5 mg SC infusion + 24000 Units rHuPH20, 8 h post infusion, individual subjects, read-out: Zoledronic Acid Concentration) of 9.44 ng/mL and a concentration at 8 h (human, sc, ZA 5 mg SC infusion + 24000 Units rHuPH20, 8 h post infusion, n=3, read-out: Mean Conc.) of 11 ng/mL. The concentration at 8 h (human, sc, ZA 5 mg SC infusion + 24000 Units rHuPH20, 8 h post infusion, n=3, read-out: Median Conc.) was 11 ng/mL, the concentration at 12 h (human, sc, ZA 5 mg SC infusion + 24000 Units rHuPH20, 12 h post infusion, individual subjects, read-out: Zoledronic Acid Concentration) was 3.91 ng/mL and the concentration at 12 h (human, sc, ZA 5 mg SC infusion + 24000 Units rHuPH20, 12 h post infusion, n=3, read-out: Mean Conc.) was 4.51 ng/mL. The concentration at 12 h (human, sc, ZA 5 mg SC infusion + 24000 Units rHuPH20, 12 h post infusion, n=3, read-out: Median Conc.) was 4.61 ng/mL, the concentration at 24 h (human, sc, ZA 5 mg SC infusion + 24000 Units rHuPH20, 24 h post infusion, individual subjects, read-out: Zoledronic Acid Concentration) was 2.15 ng/mL and the concentration at 24 h (human, sc, ZA 5 mg SC infusion + 24000 Units rHuPH20, 24 h post infusion, n=3, read-out: Mean Conc.) was 2.45 ng/mL. The concentration at 24 h (human, sc, ZA 5 mg SC infusion + 24000 Units rHuPH20, 24 h post infusion, n=3, read-out: Median Conc.) was 2.23 ng/mL, the concentration at 48 h (human, sc, ZA 5 mg SC infusion + 24000 Units rHuPH20, 48 h post infusion, individual subjects, read-out: Zoledronic Acid Concentration) was 1.28 ng/mL and the concentration at 48 h (human, sc, ZA 5 mg SC infusion + 24000 Units rHuPH20, 48 h post infusion, n=3, read-out: Mean Conc.) was 1.55 ng/mL. It also gave a concentration at 48 h (human, sc, ZA 5 mg SC infusion + 24000 Units rHuPH20, 48 h post infusion, n=3, read-out: Median Conc.) of 1.63 ng/mL, an MAT (human, 0.5 mg, ZA 0.5 mg SC, individual subjects) of 0.96 h and an MAT (human, 1 mg, ZA 1 mg SC, individual subjects) of 1.68 h. It also gave a half-life (human, Subj 1, ZA 0.0045 mg/kg SC, inf 0.554 hr, PH20 23928 U) of 1.88 h, a half-life (human, Subj 8, ZA 0.0032 mg/kg SC, inf 0.531 hr, PH20 22944 U) of 3.09 h and a half-life (human, Subj 11, ZA 0.0033 mg/kg SC, inf 0.554 hr, PH20 23928 U) of 2.2 h. The half-life (human, Subj 21, ZA 0.0066 mg/kg SC, inf 0.556 hr, PH20 24000 U) was 2.27 h, the half-life (human, Subj 29, ZA 0.0339 mg/kg SC, inf 0.556 hr, PH20 24000 U) was 8.7 h and the half-life (human, Subj 32, ZA 0.0350 mg/kg SC, inf 0.556 hr, PH20 24000 U) was 22 h. It also gave a half-life (human, Subj 37, ZA 0.0791 mg/kg SC, inf 0.556 hr, PH20 24000 U) of 23.4 h, a half-life (human, Subj 38, ZA 0.0706 mg/kg SC, inf 0.554 hr, PH20 23952 U) of 24.4 h and a half-life (human, Subj 46, ZA 0.0877 mg/kg SC, inf 0.276 hr, PH20 12000 U) of 20.8 h. For the same compound, the half-life (human, Subj 71, ZA 0.0781 mg/kg SC, inf 0.250 hr, PH20 6000 U) was 19.2 h, the half-life (human, Subj 74, ZA 0.0794 mg/kg SC, inf 0.250 hr, PH20 6000 U) was 23.7 h and the “Zoledronic Acid Concentration” value (ZA 0.25 mg SC infusion + 24000 Units rHuPH20, 0 h post infusion, individual subjects, listed as Zoledronic Acid) was 4.69 ng/mL. For the same compound, the “Zoledronic Acid Concentration” value (ZA 0.25 mg SC infusion + 24000 Units rHuPH20, 10 min post infusion, individual subjects, listed as Zoledronic Acid) was 4.97 ng/mL and 4.87 ng/mL, the “Zoledronic Acid Concentration” value (ZA 0.25 mg SC infusion + 24000 Units rHuPH20, 0.5 h post infusion, individual subjects, listed as Zoledronic Acid) was 5.17 ng/mL and 6.25 ng/mL and the “Zoledronic Acid Concentration” value (ZA 0.25 mg SC infusion + 24000 Units rHuPH20, 1 h post infusion, individual subjects, listed as Zoledronic Acid) was 5.67 ng/mL and 6.60 ng/mL. The “Zoledronic Acid Concentration” value (ZA 0.25 mg SC infusion + 24000 Units rHuPH20, 2 h post infusion, individual subjects, listed as Zoledronic Acid) was 4.33 ng/mL and 5.44 ng/mL, the “Zoledronic Acid Concentration” value (ZA 0.25 mg SC infusion + 24000 Units rHuPH20, 4 h post infusion, individual subjects, listed as Zoledronic Acid) was 3.45 ng/mL and 3.06 ng/mL and the “Zoledronic Acid Concentration” value (ZA 0.25 mg SC infusion + 24000 Units rHuPH20, 6 h post infusion, individual subjects, listed as Zoledronic Acid) was 2.02 ng/mL and 1.35 ng/mL. The “Zoledronic Acid Concentration” value (ZA 0.25 mg SC infusion + 24000 Units rHuPH20, 8 h post infusion, individual subjects, listed as Zoledronic Acid) was 1.11 ng/mL and 0.79 ng/mL, the “Zoledronic Acid Concentration” value (ZA 0.25 mg SC infusion + 24000 Units rHuPH20, 12 h post infusion, individual subjects) was “BLQ < (0.500) ng/mL” and the “Mean Conc.” value [1] was “BLQ”. For the same compound, the “Median Conc.” value [1] was “BLQ”, the “Zoledronic Acid Concentration” value (ZA 0.25 mg SC infusion + 24000 Units rHuPH20, 24 h post infusion, individual subjects) was “BLQ < (0.500) ng/mL” and the “Mean Conc.” value [2] was “BLQ”. For the same compound, the “Median Conc.” value [2] was “BLQ”, the “Zoledronic Acid Concentration” value (ZA 0.25 mg SC infusion + 24000 Units rHuPH20, 48 h post infusion, individual subjects) was “BLQ < (0.500) ng/mL” and the “Mean Conc.” value [3] was “BLQ”. The “Median Conc.” value [3] was “BLQ” and the “Zoledronic Acid Concentration” value (ZA 0.5 mg SC infusion + 24000 Units rHuPH20, 0 h post infusion, individual subjects, listed as Zoledronic Acid) was 13.60 ng/mL.
